We go through 4 compounds from US6458826B2, “Composition for repelling and deterring pests” (Navartis Animal Health US, Inc., priority 1998, dated 2002).

Test [1] relates to Amblyomma hebraeum or variegatum (nymphs). Briefly: Arena test in vitro against Amblyomma hebraeum or variegatum (nymphs). To be noted: even up to a dilution of 3.2 μg/cm^2. It counts as in vivo. As to the method:
(§1) This method is carried out in titre plates having 6 wells with a cross-section of 5 cm each, using a computer-supported video system. Each well of the titre plate is lined with a circular filter paper or another suitable carrier material. The substance of formula I to be tested is dissolved in methanol, acetonitrile or another suitable solvent, with ultrasound treatment and heating being employed for poorly-soluble substances. In an amount of 1 to 100 μg/cm^2, the dissolved test substance is placed in the centre of the filter paper on a quadrant or circular area of ca. 2.4 cm^2 radius. 4 of the 6 wells are filled with different test substances or with the same test substance in different dilutions (e.g. 1, 3.2, 5, 10 and 20 μg/cm^2). The 5th well is treated with DEET (N,N-diethyl-m-toluamide) as standard substance. The 6th well is filled with the pure solvent and serves as a control. 60 to 100 larvae or 25 to 50 nymphs or 10 to 25 adults of the parasite to be tested, e.g. ticks, are added to each filter paper, and the system is covered with a pane of glass and positioned under a video camera. At intervals of 5 seconds, the video camera takes individual pictures of all 6 wells. For a qualitative evaluation, these images are observed in a time-lapse as a continuous film, optically following the movements of the parasites on the filter paper and comparing them with the movements in the control well no. 6 or with the standard in the 5th well. A qualitative observation is thus made as to whether the test parasites move evenly over the whole surface of the filter paper and ignore the test substance, or whether and over what period they avoid the treated zone, and what influence the dilution of the test substance has on the behaviour of the test parasites. In this way, neutral and repellent substances are determined. At the same time, the duration of activity of the test substance is determined and compared with that of the standard. […] This frequency is evaluated statistically and thus quantitatively by the Willcoxon method in a comparison with the control and with the standard. […]

Test [2] deals with Boophilus microplus Biarra (larvae). Put plainly: Arena test in vitro against Boophilus microplus Biarra (larvae). The test is classed as in vivo. To be noted: even up to a dilution of 3.2 μg/cm^2. As to the method: as §1
Test [3] deals with Rhipicephalus sanguineus (nymphs). Put plainly: Arena test in vitro against Rhipicephalus sanguineus (nymphs). To be noted: even up to a dilution of 3.2 μg/cm^2. It counts as in vivo. As to the method: as §1
A further test concerns vermin. The following applies: cited from earlier work.
Another test deals with ticks. Put plainly: Arena test method for testing vermin-repellent substances. It counts as in vivo. To be noted: 1 to 100 μg/cm^2 on filter paper, video evaluation versus control and DEET. As to the method: Arena Test Method for Testing Vermin-repellent Substances
This method is carried out in titre plates having 6 wells with a cross-section of 5 cm each, using a computer-supported video system. Each well of the titre plate is lined with a circular filter paper or another suitable carrier material. The substance of formula I to be tested is dissolved in methanol, acetonitrile or another suitable solvent, with ultrasound treatment and heating being employed for poorly-soluble substances. In an amount of 1 to 100 μg/cm^2, the dissolved test substance is placed in the centre of the filter paper on a quadrant or circular area of ca. 2.4 cm^2 radius. 4 of the 6 wells are filled with different test substances or with the same test substance in different dilutions (e.g. 1, 3.2, 5, 10 and 20 μg/cm^2). The 5th well is treated with DEET (N,N-diethyl-m-toluamide) as standard substance. The 6th well is filled with the pure solvent and serves as a control. […] In this way, neutral and repellent substances are determined. At the same time, the duration of activity of the test substance is determined and compared with that of the standard. […] This frequency is evaluated statistically and thus quantitatively by the Willcoxon method in a comparison with the control and with the standard. […]

Turning to `OC(c1ccccc1)C1CCCN1` (stereo not drawn) [Compound 1.31, 2-[(1-phenyl)(1-hydroxy)methyl]pyrrolidine], the “long-term activity against Amblyomma nymphs” value in test [1] is recorded as “Particularly marked long-term activity”. Further, the “long-term activity against Boophilus larvae” value in test [2] is “Particularly marked long-term activity”. For the same compound, in test [3], the “long-term activity against Rhipicephalus sanguineus nymphs” value is recorded as “Particularly marked long-term activity”.

For the compound `CCN(CC)C(=O)c1cccc(C)c1` [DEET, N,N-diethyl-m-toluamide], in the test with vermin, the “time after which it has to be reapplied (volatilizes rather rapidly)” value is given as “ca. 2 hours”.

For the compound `Cc1ccc(C(O)C2CCC(C)(C)N2)c(C)c1` (stereo not drawn) [Compound 1.55, 2-[(1-[2,4-dimethylphenyl])(1-hydroxy)methyl]-5,5-dimethyl-pyrrolidine], the “long-term activity against Amblyomma nymphs” value in test [1] is on record as “Particularly marked long-term activity”. Besides, in the test on ticks, the “repellent activity in arena test” value is “excellent activity”. In addition, the “long-term activity against Boophilus larvae” value in test [2] is given as “Particularly marked long-term activity”. Moreover, the “long-term activity against Rhipicephalus sanguineus nymphs” value in test [3] is “Particularly marked long-term activity”.

For `OC(c1ccc(Cl)cc1)C1CCCN1` (stereo not drawn) [Compound 1.45, 2-[(1-[4-chorophenyl])(1-hydroxy)methyl]pyrrolidine], in test [1], the “long-term activity against Amblyomma nymphs” value was “Particularly marked long-term activity”. For the same compound, the “repellent activity in arena test” value in the test on ticks is “excellent activity”. The “long-term activity against Boophilus larvae” value in test [2] is listed as “Particularly marked long-term activity”. In addition, the “long-term activity against Rhipicephalus sanguineus nymphs” value in test [3] is on record as “Particularly marked long-term activity”.
